The series is described as follows: Solubility of tacrolimus in triacetin. Format: physicochemical. To be noted: free form, in triacetin at 25° C. On the procedure:
[drawing 2] (chemical name: glycerin triacetate). The properties of triacetin are described in Iyakuhin Tenkabutsu Kikaku 2003 and Iyakuhin Tenkabutsu Jiten 2007 (Yakuji Nippo), which are incorporated herein by reference. Tacrolimus in a free form may dissolve in triacetin at 25° C. in the ratio of about 12.5 g/100 g. Preferably, the external preparation of the present invention comprises triacetin at 0.1 to 30% by weight, more preferably 1.0 to 20% by weight, still more preferably 3.0 to 6.0% by weight, most preferably 4.0 to 5.0% by weight for the total amount of the preparation.

With “17-aryl-1,14-dihydroxy-12-[2-(4-hydroxy-3-methoxycyclohexyl)-1-methylbinyl]-23,25-dimethoxy-13,19,21,27-tetramethyl-11,28-dioxa-4-azatricyclo [22.3.1.04, 9] octacos-18-en-2,3,10,16-tetraone [Tacrolimus]”, the “dissolve in triacetin (ratio)” value is recorded as “about 12.5 g/100 g”.

The values above are taken from patent publication US8575189B2, “Tacrolimus preparation for external applications” (Takata Seiyaku Co., Ltd., priority 2008, dated 2013).
